Source: US20260191807A1, “COMPOSITIONS AND METHODS FOR TREATMENT OF PRADER-WILLI SYNDROME” (ERX Pharmaceuticals Inc., priority 2022, published 2026)
Where “and” joins values, the source holds several entries; their conditions need not be identical. Equal entries are not always repeated.

Assays:
Type in all cases: in vivo
C57BL/6 mice = experiment: Deaths and clinical signs, C57BL/6 DIO study; conditions: C57BL/6 DIO mice treated Day 1 to Day 15; Celastrol 0.2 mg/kg IP
Procedure: (§1) C57BL/6 mice were treated with test compound (Celastrol) or controls as shown in the table below from Day 1 to Day 15. […] One mouse was excluded from the study because it appeared resistant to nestlet shredding prior to treatment.

C57BL/6 DIO mice [1] = experiment: Nestlet shredding test in C57BL/6 DIO mice; conditions: Belaronib 0.3 mg/kg SC, Celastrol 0.2 mg/kg IP daily, mean
Procedure: as §1
(§2) Male C57BL/6 DIO mice were obtained from Jackson Labs (Bar Harbor, ME). The mice arrived at ages 17 weeks and mice were housed 3 per cage on arrival. Prior to dosing in the study, the mice were singly housed.
(§3) All treatment volumes were 10 mL/kg. Utilizing the art-recognized nestlet shredding mouse model, […]. Celastrol and the vehicle control were administered intraperitoneally using a 30G needle. Beloranib was administered subcutaneously using a 30G needle. All treatments were administered daily in the afternoon at 17:00 h, 1 hour before dark cycle from Day 1 to end of dosing.
(§4) Celastrol was dissolved in a pharmaceutically-acceptable excipient, e.g., 50% Solutol/50% DMAC, and this stock solution aliquoted and stored at −80° C. until treatment day. On the day of treatment, an aliquot of the stock solution was thawed and diluted […] with saline to obtain the desired dosing solution strength in 5% Solutol/5% dimethylacetamide/90% saline. The vehicle control was 5% Solutol/5% dimethylacetamide/90% saline. Beloranib was dissolved in 100% DMSO, and this stock solution was aliquoted and stored at −80° C. until treatment day. On the day of treatment, an aliquot of the stock solution was thawed and diluted 1:10 with deionized (DI) water to obtain the desired dosing solution strength in 10% DMSO.
The nestlet shredding test is an art-recognized animal model for human repetitive, anxiety, and/or compulsive behaviors. In the nestlet shredding test, a nestlet comprised of pulped fiber, e.g., cotton fiber, is preweighed and placed on top of cage bedding and the amount of the nestlet remaining intact after a test session of pre-determined time is evaluated.
Nestlet shredding was determined on day 1, day 6, day 11 and day 15 by placing a fresh nestlet prior to the dark cycle and measuring the weight of the remaining nestlet at 12 and 24 hours on an Ohaus model CS 200 balance. Percent shredding was calculated based on the initial nestlet weight.

C57BL/6 DIO mice [2] = experiment: Body weights of C57BL/6 DIO mice during daily treatment; conditions: Celastrol 0.2 mg/kg IP daily; for Body weights (expressed as a percentage of day-1 weight) / Body weights (in grams): Belaronib 0.3 mg/kg SC, mean
Magel2 mice = experiment: Deaths and clinical signs, Magel2 study; conditions: 0.2 mg/kg IP for 21 days
Procedure: In the study disclosed herein, celastrol at was administered intraperitoneally using a 30G needle at a dose of 0.2 mg/kg to five female Magel2 homozygous mice (−/−) and four male mice heterozygous for Magel2 (−/+). In addition, vehicle was administered to four male mice heterozygous for Magel2 (−/+) for 21 days.

C57BL/6 DIO mice [3] = experiment: Daily food intake of C57BL/6 DIO mice; conditions: for Food intake (food weights in g/day): Belaronib 0.3 mg/kg SC, Celastrol 0.2 mg/kg IP daily, mean
Procedure: as §1, §2, §3, §4
Daily food intake was calculated based on remaining food weight compared to food weight on the previous day using an Ohaus model CS 200 balance.

CC1=C(O)C(=O)C=C2C1=CC=C1[C@@]2(C)CC[C@@]2(C)[C@@H]3C[C@](C)(C(=O)O)CC[C@]3(C)CC[C@]12C [Celastrol]
deaths or abnormal clinical signs (C57BL/6 mice): No deaths or abnormal clinical signs | Nestlet Shredding (percent of nestlet shredded) (C57BL/6 DIO mice [1]; Day 1, 12 hour): 94.4% | Nestlet Shredding (percent of nestlet shredded) (C57BL/6 DIO mice [1]; Day 6, 12 hour): 70.1% | Nestlet Shredding (percent of nestlet shredded) (C57BL/6 DIO mice [1]; Day 6, 24 hour): 93.6% | Nestlet Shredding (percent of nestlet shredded) (C57BL/6 DIO mice [1]; Day 11, 12 hour): 43.7% | Nestlet Shredding (percent of nestlet shredded) (C57BL/6 DIO mice [1]; Day 11, 24 hour): 71.0% | Nestlet Shredding (percent of nestlet shredded) (C57BL/6 DIO mice [1]; Day 15, 12 hour): 50.9% | Nestlet Shredding (percent of nestlet shredded) (C57BL/6 DIO mice [1]; Day 15, 24 hour): 63.3% | Body weights (expressed as a percentage of day-1 weight) (C57BL/6 DIO mice [2]; Day 1): 100.0% | Body weights (in grams) (C57BL/6 DIO mice [2]; Day 1): 44.8 grams and 45.4 grams | Body weights (expressed as a percentage of day-1 weight) (C57BL/6 DIO mice [2]; Day 2): 98.6% | Body weights (in grams) (C57BL/6 DIO mice [2]; Day 2): 44.8 grams | Body weights (expressed as a percentage of day-1 weight) (C57BL/6 DIO mice [2]; Day 3): 95.8% | Body weights (in grams) (C57BL/6 DIO mice [2]; Day 3): 43.5 grams | Body weights (expressed as a percentage of day-1 weight) (C57BL/6 DIO mice [2]; Day 4): 92.8% | Body weights (in grams) (C57BL/6 DIO mice [2]; Day 4): 42.2 grams | Body weights (expressed as a percentage of day-1 weight) (C57BL/6 DIO mice [2]; Day 5): 89.6% | Body weights (in grams) (C57BL/6 DIO mice [2]; Day 5): 40.7 grams | Body weights (expressed as a percentage of day-1 weight) (C57BL/6 DIO mice [2]; Day 6): 86.2% | Body weights (in grams) (C57BL/6 DIO mice [2]; Day 6): 39.2 grams | Body weights (expressed as a percentage of day-1 weight) (C57BL/6 DIO mice [2]; Day 7): 83.8% | Body weights (in grams) (C57BL/6 DIO mice [2]; Day 7): 38.1 grams | Body weights (expressed as a percentage of day-1 weight) (C57BL/6 DIO mice [2]; Day 8): 81.3% | Body weights (in grams) (C57BL/6 DIO mice [2]; Day 8): 37.0 grams | Body weights (expressed as a percentage of day-1 weight) (C57BL/6 DIO mice [2]; Day 9): 79.2% | Body weights (in grams) (C57BL/6 DIO mice [2]; Day 9): 36.0 grams | Body weights (expressed as a percentage of day-1 weight) (C57BL/6 DIO mice [2]; Day 10): 76.5% | Body weights (in grams) (C57BL/6 DIO mice [2]; Day 10): 34.8 grams | Body weights (expressed as a percentage of day-1 weight) (C57BL/6 DIO mice [2]; Day 11): 73.9% | Body weights (in grams) (C57BL/6 DIO mice [2]; Day 11): 33.6 grams | Body weights (expressed as a percentage of day-1 weight) (C57BL/6 DIO mice [2]; Day 12): 72.2% | Body weights (in grams) (C57BL/6 DIO mice [2]; Day 12): 32.8 grams | Body weights (expressed as a percentage of day-1 weight) (C57BL/6 DIO mice [2]; Day 13): 71.1% | Body weights (in grams) (C57BL/6 DIO mice [2]; Day 13): 32.3 grams | Body weights (expressed as a percentage of day-1 weight) (C57BL/6 DIO mice [2]; Day 14): 70.1% | Body weights (in grams) (C57BL/6 DIO mice [2]; Day 14): 31.9 grams | Body weights (expressed as a percentage of day-1 weight) (C57BL/6 DIO mice [2]; Day 15): 69.2% | Body weights (in grams) (C57BL/6 DIO mice [2]; Day 15): 31.4 grams | body weight lost (percentage of day 1 body weight) (C57BL/6 DIO mice [2]; at day 15, Beloranib 0.3 mg/kg SC, vehicle-treated mice lost 15.5%): 30.8% | deaths or abnormal clinical signs (Magel2 mice): No deaths or abnormal clinical signs | cumulative food intake, average total for the study (C57BL/6 DIO mice [3]; 15-day study, Beloranib 0.3 mg/kg SC, celastrol 0.2 mg/kg IP daily, vehicle 32.6 g): 17.4 g/mouse | effect on food intake (in words) (C57BL/6 DIO mice [3]; Celastrol compared with positive control Beloranib): more potent and sustained effect on food intake | Food intake (food weights in g/day) (C57BL/6 DIO mice [3]; Day 1): 2.7 g/day | Food intake (food weights in g/day) (C57BL/6 DIO mice [3]; Day 2): 1.2 g/day | Food intake (food weights in g/day) (C57BL/6 DIO mice [3]; Day 3): 1.1 g/day | Food intake (food weights in g/day) (C57BL/6 DIO mice [3]; Day 4): 0.9 g/day | Food intake (food weights in g/day) (C57BL/6 DIO mice [3]; Day 5): 0.7 g/day | Food intake (food weights in g/day) (C57BL/6 DIO mice [3]; Day 6): 0.9 g/day | Food intake (food weights in g/day) (C57BL/6 DIO mice [3]; Day 7): 1.1 g/day | Food intake (food weights in g/day) (C57BL/6 DIO mice [3]; Day 8): 1.2 g/day | Food intake (food weights in g/day) (C57BL/6 DIO mice [3]; Day 9): 0.7 g/day | Food intake (food weights in g/day) (C57BL/6 DIO mice [3]; Day 10): 0.9 g/day | Food intake (food weights in g/day) (C57BL/6 DIO mice [3]; Day 11): 1.1 g/day | Food intake (food weights in g/day) (C57BL/6 DIO mice [3]; Day 12): 1.3 g/day | Food intake (food weights in g/day) (C57BL/6 DIO mice [3]; Day 13): 1.4 g/day | Food intake (food weights in g/day) (C57BL/6 DIO mice [3]; Day 14): 1.2 g/day | Food intake (food weights in g/day) (C57BL/6 DIO mice [3]; Day 15): 1.0 g/day | food intake, average (C57BL/6 DIO mice [3]; from day 2 throughout the 15-day study, 0.2 mg/kg IP daily, vehicle around 2.2): 1.0 g/day/mouse
